In one experiment the target is T1, DNA gyrase (Escherichia coli, UniProt P0AES4+P0AES6).
T1 construct: supercoiling of relaxed pUC18
The experiment in a line: Inhibition of DNA gyrase activity (DNA gyrase supercoiling assay, relaxed pUC18 plasmid as substrate). The class given is biochemical, E. coli H560. The procedure: A. Inhibition of DNA gyrase activity
The inhibition of DNA gyrase activity was measured using a DNA gyrase supercoiling assay according to R. Otter & N. Cozzarelli: Methods in Enzymology, Vol. 100, pp 171-180 (1983). DNA gyrase was isolated from E. coli H560, and relaxed pUC18 plasmid was used as substrate. The activities as regards inhibition of DNA gyrase activity, expressed as maximum non-effective concentration of the test compound (MNC in μg/ml) are compiled in the following Table 1: […]

The subject of a further experiment is E. coli B. In words: Antibacterial activity in vitro (agar dilution). The format is cell-based. The following applies: Escherichia coli, agar dilution (MuellerHinton agar), inoculum 10^4 CFU/spot, read-out: minimum inhibitory concentration (MIC). In general terms: In agar dilution the substance is mixed into plates at graded concentrations.
The next experiment deals with P. aeruginosa 799/61. In words: Antibacterial activity in vitro (agar dilution). The format is cell-based. The following applies: Pseudomonas aeruginosa, agar dilution (MuellerHinton agar), inoculum 10^4 CFU/spot, read-out: minimum inhibitory concentration (MIC).
Another experiment concerns S. aureus 25923. The experiment in a line: Antibacterial activity in vitro (agar dilution). The class given is cell-based. The following applies: Staphylococcus aureus, agar dilution (MuellerHinton agar), inoculum 10^4 CFU/spot, read-out: minimum inhibitory concentration (MIC).
A further experiment deals with S. aureus Smith. The experiment in a line: Antibacterial activity in vitro (agar dilution). The class given is cell-based. The following applies: Staphylococcus aureus, agar dilution (MuellerHinton agar), inoculum 10^4 CFU/spot, read-out: minimum inhibitory concentration (MIC).
In a further experiment the test system is S. epidermidis 16-2. In words: Antibacterial activity in vitro (agar dilution). The following applies: Staphylococcus epidermidis, 162, agar dilution (MuellerHinton agar), inoculum 10^4 CFU/spot, read-out: minimum inhibitory concentration (MIC). The class given is cell-based.
In a further experiment the test system is S. pyogenes 15. In words: Antibacterial activity in vitro (agar dilution). The class given is cell-based. The conditions noted are these: Streptococcus pyogenes, agar dilution (MuellerHinton agar), inoculum 10^4 CFU/spot, read-out: minimum inhibitory concentration (MIC).
The test system of another experiment is S. faecalis 6. In words: Antibacterial activity in vitro (agar dilution). The class given is cell-based. The following applies: Enterococcus faecalis, agar dilution (MuellerHinton agar), inoculum 10^4 CFU/spot, read-out: minimum inhibitory concentration (MIC).

≈ marks a conversion by molar mass, not a printed value. Bounds are passed on as bounds.

Here are results for eleven molecules from patent publication US5594135A, “Tricyclic DNA gyrase inhibitors” (Hoffmann-La Roche Inc., priority 1994, dated 1997).

T1 sequence (P0AES4 whole entry, one chain of several): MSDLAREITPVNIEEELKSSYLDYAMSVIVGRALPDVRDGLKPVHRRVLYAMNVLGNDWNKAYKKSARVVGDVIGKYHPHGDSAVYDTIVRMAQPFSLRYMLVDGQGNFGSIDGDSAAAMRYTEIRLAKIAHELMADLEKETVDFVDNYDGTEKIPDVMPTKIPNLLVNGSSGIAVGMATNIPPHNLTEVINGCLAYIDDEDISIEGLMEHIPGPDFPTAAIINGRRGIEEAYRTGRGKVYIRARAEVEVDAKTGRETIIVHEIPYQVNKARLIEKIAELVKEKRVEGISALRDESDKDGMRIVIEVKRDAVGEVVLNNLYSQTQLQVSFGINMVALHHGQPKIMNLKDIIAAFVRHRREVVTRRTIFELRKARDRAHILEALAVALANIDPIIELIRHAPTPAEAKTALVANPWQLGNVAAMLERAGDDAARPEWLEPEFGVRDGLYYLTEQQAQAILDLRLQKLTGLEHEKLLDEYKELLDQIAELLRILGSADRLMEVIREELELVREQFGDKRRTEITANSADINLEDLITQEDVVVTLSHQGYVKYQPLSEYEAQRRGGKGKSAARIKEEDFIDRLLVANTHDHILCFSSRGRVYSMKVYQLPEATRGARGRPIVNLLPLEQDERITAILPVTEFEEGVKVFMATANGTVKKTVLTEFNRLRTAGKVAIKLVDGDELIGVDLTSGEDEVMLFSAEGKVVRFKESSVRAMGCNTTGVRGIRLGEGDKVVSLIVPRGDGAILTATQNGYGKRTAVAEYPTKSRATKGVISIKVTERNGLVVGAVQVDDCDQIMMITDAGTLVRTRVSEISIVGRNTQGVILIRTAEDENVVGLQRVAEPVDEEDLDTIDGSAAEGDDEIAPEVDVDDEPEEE
Text for E. coli B: A. Antibacterial activity in vitro
(§1) Agar dilution (MuellerHinton agar), Inoculum: 10^4 CFU/spot
Text for P. aeruginosa 799/61: A. Antibacterial activity in vitro
as §1
Text for S. aureus 25923: A. Antibacterial activity in vitro
as §1
Text for S. aureus Smith: A. Antibacterial activity in vitro
as §1
Text for S. epidermidis 16-2: A. Antibacterial activity in vitro
as §1

In the case of `COC(=O)[C@@H]1CSCc2c(O)cc(OC)c(C)c2C(=O)O[C@H](COC(C)=O)CCC(=S)N1` [Example 11, (4R,9S)-9-acetoxymethyl-15-hydroxy-13-methoxy-12-methyl-11-oxo-6-thioxo-3,4,5,6,7,8,9,11-octahydro-1H-10,2,5-benzoxathiaazacyclotridecine-4-carboxylic acid methyl ester], the “maximum non-effective concentration of the test compound (MNC)” value (shortened to “maximum non-effective concentration”) at DNA gyrase was found to be 0.02 µg/mL. Further, the MIC in the experiment with E. coli B was greater than 64 µg/mL; in the experiment on P. aeruginosa 799/61, 8 µg/mL (≈ 16.5 µM); in the experiment with S. aureus 25923, 0.5 µg/mL (≈ 1.03 µM); in the experiment with S. aureus Smith, 0.5 µg/mL (≈ 1.03 µM); in the experiment with S. epidermidis 16-2 it was 0.12 µg/mL (≈ 0.247 µM); with S. pyogenes 15, 2 µg/mL (≈ 4.12 µM). Also, the MIC in the experiment with S. faecalis 6 came out at 2 µg/mL (≈ 4.12 µM).

Take `COc1cc(O)c2c(c1C)C(=O)O[C@H](CO)CCC(=S)N[C@H](C(=O)NC1CCCC1)CSC2` [Example 14, (4R,9S)-15-hydroxy-9-hydroxymethyl-13-methoxy-12-methyl-11-oxo-6-thioxo-3,4,5,6,7,8,9,11-octahydro-1H-10,2,5-benzoxathiaazacyclotridecine-4-carboxylic acid cyclopentylamide]: the “maximum non-effective concentration” value on DNA gyrase amounted to 0.2 µg/mL. Moreover, the MIC with E. coli B came to 64 µg/mL (≈ 129 µM); with P. aeruginosa 799/61, 8 µg/mL (≈ 16.1 µM); with S. aureus 25923, 16 µg/mL (≈ 32.2 µM); in the experiment with S. aureus Smith, 8 µg/mL (≈ 16.1 µM); in the experiment with S. epidermidis 16-2, 1 µg/mL (≈ 2.01 µM); with S. pyogenes 15, 4 µg/mL (≈ 8.05 µM). Also, in the experiment with S. faecalis 6, the MIC was 4 µg/mL (≈ 8.05 µM).

With `COC(=O)[C@@H]1CSCc2c(O)cc(OC)c(C)c2C(=O)OCCCCC(=S)N1` [Example 23, (R)-16-hydroxy-14-methoxy-13-methyl-12-oxo-6-thioxo-1,3,4,5,6,7,8,9,10,12-decahydro-11,2,5-benzoxathiaazacyclotetradecine-4-carboxylic acid methyl ester], on DNA gyrase, the “maximum non-effective concentration” value worked out at 0.01 µg/mL. Further, the MIC in the experiment on E. coli B was 16 µg/mL (≈ 37.4 µM); with P. aeruginosa 799/61, 8 µg/mL (≈ 18.7 µM); in the experiment with S. aureus 25923 it was 0.5 µg/mL (≈ 1.17 µM); in the experiment on S. aureus Smith, 0.25 µg/mL (≈ 0.585 µM); in the experiment with S. epidermidis 16-2, 0.12 µg/mL (≈ 0.281 µM); in the experiment on S. pyogenes 15 it was 2 µg/mL (≈ 4.68 µM). For the same molecule, the MIC in the experiment with S. faecalis 6 came out at 1 µg/mL (≈ 2.34 µM).

Turning to `CCCNC(=O)[C@@H]1CSCc2c(O)cc(OC)c(C)c2C(=O)OCCCCC(=S)N1` [Example 26, (R)-16-hydroxy-14-methoxy-13-methyl-12-oxo-6-thioxo-1,3,4,5,6,7,8,9,10,12-decahydro-11,2,5-benzoxathiaazacyclotetradecine-4-carboxylic acid propylamide], the “maximum non-effective concentration” value at DNA gyrase turned out to be 0.04 µg/mL. Moreover, the MIC in the experiment with E. coli B is greater than 64 µg/mL; with P. aeruginosa 799/61 it was 32 µg/mL (≈ 70.4 µM); in the experiment with S. aureus 25923, 2 µg/mL (≈ 4.4 µM); with S. aureus Smith it was 0.5 µg/mL (≈ 1.1 µM); in the experiment on S. epidermidis 16-2, 0.12 µg/mL (≈ 0.264 µM); in the experiment on S. pyogenes 15, 4 µg/mL (≈ 8.8 µM). Further, the MIC with S. faecalis 6 stood at 2 µg/mL (≈ 4.4 µM).

For the molecule `C#CCNC(=O)[C@@H]1CSCc2c(O)cc(OC)c(C)c2C(=O)OCCCCC(=S)N1` [Example 27, (R)-16-hydroxy-14-methoxy-13-methyl-12-oxo-6-thioxo-1,3,4,5,6,7,8,9,10,12-decahydro-11,2,5benzoxathiaazacyclotetradecine-4-carboxylic acid prop-2-ynylamide], the “maximum non-effective concentration” value at DNA gyrase turned out to be 0.01 µg/mL. The MIC in the experiment with E. coli B amounted to 64 µg/mL (≈ 142 µM); in the experiment with P. aeruginosa 799/61, 2 µg/mL (≈ 4.44 µM); in the experiment on S. aureus 25923 it was 1 µg/mL (≈ 2.22 µM); in the experiment with S. aureus Smith it was 0.5 µg/mL (≈ 1.11 µM); with S. epidermidis 16-2, 0.12 µg/mL (≈ 0.266 µM); in the experiment on S. pyogenes 15, 4 µg/mL (≈ 8.88 µM). In the experiment with S. faecalis 6, the MIC was found to be 0.5 µg/mL (≈ 1.11 µM).

`COC(=O)[C@@H]1CSCc2c(O)cc(OC)c(C)c2C(=O)OC[C@H](O)CCC(=S)N1` [Example 32, (4R,9R)-9,16-dihydroxy-14-methoxy-13-methyl-12-oxo-6-thioxo-1,3,4,5,6,7,8,9,10,12-decahydro-11,2,5-benzoxathiaazacyclotetradecine-4-carboxylic acid methyl ester]: the “maximum non-effective concentration” value on DNA gyrase stood at 0.01 µg/mL. Further, the MIC in the experiment on E. coli B is greater than 64 µg/mL; with P. aeruginosa 799/61 it was 4 µg/mL (≈ 9.02 µM); in the experiment on S. aureus 25923, 1 µg/mL (≈ 2.25 µM); in the experiment with S. aureus Smith, 0.5 µg/mL (≈ 1.13 µM); in the experiment on S. epidermidis 16-2, 0.25 µg/mL (≈ 0.564 µM); with S. pyogenes 15, 2 µg/mL (≈ 4.51 µM). For the same molecule, in the experiment on S. faecalis 6, the MIC was 2 µg/mL (≈ 4.51 µM).

Consider `COc1cc(O)c2c(c1C)C(=O)OCCCCC(=O)N[C@H](c1nc(C)no1)CSC2` [Example 33, (R)-16-hydroxy-14-methoxy-13-methyl-4-(3-methyl-1,2,4-oxadiazol-5-yl)-1,3,4,5,6,7,8,9,10,12-decahydro-11,2,5-benzoxathiaazacyclotetradecine-6,12-dione], for which, on DNA gyrase, the “maximum non-effective concentration” value is 0.01 µg/mL. Besides, the MIC with E. coli B came to 32 µg/mL (≈ 73.5 µM); with P. aeruginosa 799/61, 4 µg/mL (≈ 9.18 µM); in the experiment with S. aureus 25923 it was 0.5 µg/mL (≈ 1.15 µM); with S. aureus Smith, 0.25 µg/mL (≈ 0.574 µM); in the experiment on S. epidermidis 16-2, 0.25 µg/mL (≈ 0.574 µM); in the experiment on S. pyogenes 15, 1 µg/mL (≈ 2.3 µM). The MIC with S. faecalis 6 was found to be 0.5 µg/mL (≈ 1.15 µM).

Consider `COc1cc(O)c2c(c1C)C(=O)OCCCCC(=S)N[C@H](C(N)=O)CSC2` [Example 69, (R)-16-hydroxy-14-methoxy-13-methyl-12-oxo-6-thioxo-1,3,4,5,6,7,8,9,10,12-decahydro-11,2,5-benzoxathiaazacyclotetradecine-4-carboxylic acid amide], for which, at DNA gyrase, the “maximum non-effective concentration” value is 0.04 µg/mL. For the same molecule, the MIC in the experiment with E. coli B is greater than 64 µg/mL; in the experiment with P. aeruginosa 799/61, greater than 64 µg/mL; in the experiment with S. aureus 25923, 4 µg/mL (≈ 9.7 µM); with S. aureus Smith, 2 µg/mL (≈ 4.85 µM); with S. epidermidis 16-2, 0.25 µg/mL (≈ 0.606 µM); in the experiment on S. pyogenes 15, 2 µg/mL (≈ 4.85 µM). Moreover, in the experiment with S. faecalis 6, the MIC was determined as 2 µg/mL (≈ 4.85 µM).

As for `COC(=O)c1c(Br)c(OC)cc(O)c1CSC[C@H](NC(C)=S)c1nc(C)no1` [Example 71, (R)-2-bromo-5-hydroxy-3-methoxy-6-[2-(3-methyl-1,2,4-oxadiazol-5-yl)-2-thioacetylamino-ethylsulfanylmethyl]-benzoic acid methyl ester], the “maximum non-effective concentration” value on DNA gyrase is 0.5 µg/mL. Moreover, the MIC with E. coli B was greater than 64 µg/mL; with P. aeruginosa 799/61 it was 64 µg/mL (≈ 131 µM); in the experiment on S. aureus 25923, 2 µg/mL (≈ 4.08 µM); in the experiment on S. aureus Smith it was 1 µg/mL (≈ 2.04 µM); in the experiment on S. epidermidis 16-2 it was 0.5 µg/mL (≈ 1.02 µM); in the experiment with S. pyogenes 15, 4 µg/mL (≈ 8.16 µM). The MIC in the experiment with S. faecalis 6 amounted to 4 µg/mL (≈ 8.16 µM).

With `COC(=O)c1c(Cl)c(OC)cc(O)c1CSC[C@H](NC(C)=S)c1nc(C)no1` [Example 92, (R)-2-chloro-5-hydroxy-3-methoxy-6-[2-(3-methyl-1,2,4-oxadiazol-5-yl)-2-thioacetylamino-ethylsulfanylmethyl]-benzoic acid methyl ester], the “maximum non-effective concentration” value on DNA gyrase was 0.04 µg/mL. In addition, the MIC was greater than 64 µg/mL in the experiment on E. coli B; 64 µg/mL (≈ 144 µM) with P. aeruginosa 799/61; 4 µg/mL (≈ 8.97 µM) in the experiment on S. aureus 25923; 2 µg/mL (≈ 4.48 µM) with S. aureus Smith; 1 µg/mL (≈ 2.24 µM) with S. epidermidis 16-2; 8 µg/mL (≈ 17.9 µM) in the experiment with S. pyogenes 15. Besides, the MIC with S. faecalis 6 worked out at 8 µg/mL (≈ 17.9 µM).

Take `COc1cc(O)c(CSC[C@H](NC(C)=O)c2nc(C)no2)c(C#N)c1C` [Example 97, (R)-N-[2-(2-cyano-6-hydroxy-4-methoxy-3-methyl-benzylsulfanyl]-1-(3-methyl-1,2,4-oxadiazol-5-yl)-ethyl]-acetamide]: the “maximum non-effective concentration” value at DNA gyrase turned out to be 0.4 µg/mL. For the same molecule, the MIC with E. coli B worked out at 64 µg/mL (≈ 170 µM); in the experiment with P. aeruginosa 799/61 it was 64 µg/mL (≈ 170 µM); in the experiment on S. aureus 25923, 16 µg/mL (≈ 42.5 µM); with S. aureus Smith it was 8 µg/mL (≈ 21.3 µM); in the experiment on S. epidermidis 16-2, 1 µg/mL (≈ 2.66 µM); in the experiment on S. pyogenes 15 it was 16 µg/mL (≈ 42.5 µM). Further, the MIC with S. faecalis 6 was 16 µg/mL (≈ 42.5 µM).
